Source: US20060141027A1, “Sublingual administration of non-steroidal anti-inflammatory pharmacological substances” (priority 2003, published 2006)

Assay: experimentation on patients: sublingual versus traditional oral administration of FANS
Type: in vivo
Details: sublingual administration compared with oral formulation of the same agent
Text: In the performed experimentation, the used sublingual preparations consisted of tablets which can be separated in two parts.

Question: With `CS(=O)(=O)Nc1ccc([N+](=O)[O-])cc1Oc1ccccc1` [nimesulid, nimesulide] as the compound, how does the “therapeutic dose necessary for obtaining the desired anti-inflammatory effect” value (shortened to “therapeutic dose necessary”) read?
Answer: reduction of the therapeutic dosage

Question: With `CC(=O)Nc1ccc(O)cc1` [paracetamol] as the compound, how does the “therapeutic dose necessary” value read?
Answer: reduction of the therapeutic dosage

Question: Which “therapeutic dose necessary” value does the source give for `CC(C)Cc1ccc(C(C)C(=O)O)cc1` (centres unmarked) [ibuprofen] here?
Answer: reduction of the therapeutic dosage

Question: With `O=C(O)Cc1ccccc1Nc1c(Cl)cccc1Cl` [diclofenac] as the compound, how does the “therapeutic dose necessary” value read?
Answer: reduction of the therapeutic dosage

Question: With `CC(C(=O)O)c1cccc(C(=O)c2ccccc2)c1` (centres unmarked) [ketoprofen] as the compound, how does the “therapeutic dose necessary” value read?
Answer: reduction of the therapeutic dosage
